Source: ChEMBL document CHEMBL4622858, “Synthesis of morpholine derivatives using the Castagnoli-Cushman reaction as BACE1 inhibitors: Unexpected binding activity of cyclic thioamides” (Bioorg Med Chem Lett, 2020)

Target: T1, Beta-secretase 1 (Homo sapiens, UniProt P56817)
Assay: Inhibition of human BACE1 using HiLyte Fluo488/QXL-520 peptide substrate by fluorescence assay

T1 sequence (P56817 whole entry): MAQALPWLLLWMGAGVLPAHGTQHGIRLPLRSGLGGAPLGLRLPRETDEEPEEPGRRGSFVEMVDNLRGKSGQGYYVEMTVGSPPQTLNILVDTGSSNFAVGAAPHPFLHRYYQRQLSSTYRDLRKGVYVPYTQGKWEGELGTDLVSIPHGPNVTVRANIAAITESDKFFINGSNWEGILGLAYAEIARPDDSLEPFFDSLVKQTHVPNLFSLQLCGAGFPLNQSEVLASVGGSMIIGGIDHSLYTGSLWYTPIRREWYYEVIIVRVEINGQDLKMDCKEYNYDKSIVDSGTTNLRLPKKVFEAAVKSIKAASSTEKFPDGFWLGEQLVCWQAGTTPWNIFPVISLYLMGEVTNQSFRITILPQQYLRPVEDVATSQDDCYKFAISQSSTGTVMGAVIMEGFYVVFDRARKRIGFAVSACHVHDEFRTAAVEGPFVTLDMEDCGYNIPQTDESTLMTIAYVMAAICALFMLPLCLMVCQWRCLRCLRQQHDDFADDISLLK

| SMILES | IC50 [µM] |
| --- | --- |
| COC(=O)[C@H]1OCC(=S)N[C@@H]1c1ccc(OC)cc1 | 5.7 |

Target: T1, Beta-secretase 1
Assay: Inhibition of human BACE1 using HiLyte Fluo488/QXL-520 peptide substrate at 10 uM by fluorescence assay

| SMILES | inhibition [%] |
| --- | --- |
| COc1ccc([C@H]2NC(=N)CO[C@@H]2C(N)=O)cc1Br | 17 |
| COC(=O)[C@H]1OCC(=S)N[C@@H]1c1ccc(OC)c(OC)c1 | 24 |
| COc1ccc([C@H]2NC(=N)CO[C@@H]2C(N)=O)cc1 | 27 |
| COC(=O)[C@H]1OCC(=S)N[C@@H]1c1ccc(C)cc1 | 19 |
| COc1ccc([C@H]2NC(=N)CO[C@@H]2C(N)=O)cc1OC | 10 |
| COC(=O)[C@H]1OCC(=S)N[C@@H]1c1ccc(OC)c(Br)c1 | 26 |
| COC(=O)[C@H]1OCC(=S)N[C@@H]1c1ccc(OC)cc1 | 40 |
| Cc1ccc([C@H]2NC(=N)CO[C@@H]2C(N)=O)cc1 | 14 |
